Tested on: Type IV pigmented epidermal equivalents (SkinEthic reconstructed human epidermis; normal human keratinocytes and melanocytes)
Test: Darkening in pigmented epidermal equivalents (DOPA and Fontana-Mason staining)
Type: cell-based
Parameters: key to Score DOPA staining (tyrosinase activity): 0: No change in DOPA staining and in melanin deposition; 1: Minimal increase in DOPA staining and/ or in pigment deposition; 2: Increased DOPA staining and/ or in pigment deposition; 3: Strong increase in DOPA staining and/ or in pigment deposition
Settings: for Score F & M staining (Pigment deposition) / Score DOPA staining (tyrosinase activity): peptides at 100 μM in PBS, treated three or five days, harvested fourth or sixth day; for Score F & M staining (Pigment deposition): sectioned equivalents F&M stained; for Score DOPA staining (tyrosinase activity): whole equivalents DOPA stained; for Overall change of pigmentation (darkening), in words: peptides at 100 μM, compared with UVB irradiation (0.10 J/cm^2)
Description: Peptide 1 and Peptide 2 were tested for their ability to induce darkening in pigmented epidermal equivalents. The pigmented epidermal equivalents contain human normal melanocytes, together with normal, human-derived epidermal keratinocytes, which have been cultured to form a multi-layered, highly differentiated model of the human epidermis. Type IV pigmented epidermal equivalents (consists of normal human keratinocytes pooled from variety of phototype skins and normal human melanocytes derived from type IV phototype skin) were treated with test compounds for three or five days and samples were harvested on the fourth or sixth day of the study. The harvested equivalents were stained with DOPA (a substrate for tyrosinase) or with Fontana-Mason (F&M) (Sheenan D C, Hrapckak B B, eds: Theory and practice of Histo-Thchnology (St Louis: C V Mosby, 1980) pp 223-277). F&M staining identifies silver nitrate reducing activity, which, in skin, identifies melanin.
The Epidermal equivalents used were SkinEthic® reconstructed human epidermis from SkinEthic™ Laboratory (Nice, France). UV irradiation was performed with a UVB FS light source in an exposure chamber, with plate covers removed and Phosphate—buffered saline (PBS, from Gibco-BRL, Gaithersburg, Md.) present in the lower chamber. UVB intensity was measured with a UVX radiometer (UVP Inc., San Gabriel, Calif.). Equivalents were treated with 0.1-0.12 J/cm2. […] The peptides were assayed at 100 μM, and were dissolved in PBS.
On the fourth or sixth day of the study, the equivalents were fixed, sectioned and F&M stained, or they were DOPA stained as whole without sectioning, using standard techniques. Images of stained whole or sectioned equivalents were obtained and analyzed with Image Pro Plus 3.0 software (Media Cybernetics, Silver Spring, Md.). Parameters measured were surface area of stained material within melanocyte and keratinocyte and the total surface area of the cells in culture. In all experiments there was no difference between PBS-treated cells and untreated controls. At least three sections per equivalent, three equivalents per experiment were processed. DOPA-stained epidermal equivalents were evaluated for the change in tyrosinase activity. F&M-stained histological sections were evaluated for the change in pigment deposition. Due to the low content of melanin within the equivalent, it was not possible to quantify the level of pigment within melanocytes in F&M stained sections by image analysis. Therefore, we evaluate the pigment change using the scale defined in Table 1.

Compound | Score F & M staining (Pigment deposition) | Score DOPA staining (tyrosinase activity) | Overall change of pigmentation (darkening), in words
COc1ccc(CN[C@@H](CCCN/C(N)=N/[N+](=O)[O-])C(=O)N[C@@H](CC(C)C)C(N)=O)cc1 [Peptide 1] | 1-2 | 3 | darkening levels similar to those produced by UVB irradiation
CC(C)C[C@H](NC(=O)[C@H](CCCN/C(N)=N/[N+](=O)[O-])NCc1ccc(OC(F)(F)F)cc1)C(N)=O [Peptide 2] | 1-2 | 1-2 | able to enhance pigment production
